# Reference: article PMC12298827, “Subchronic Toxicities of Four Per- and Polyfluoroalkyl Substances (PFASs) by Oral Exposure in Sprague–Dawley Rats” (Toxics, 2025)
# System: male and female Sprague–Dawley rats
# Assay: 90-day subchronic oral gavage toxicity study
# Assay type: in vivo, rat
# Design: key to NOEL, absolute liver weight increase / LOEL, absolute liver weight increase / NOEL, relative kidney weight increase / LOEL, relative kidney weight increase / NOEL, absolute kidney weight increase / LOEL, absolute kidney weight increase / NOEL, relative liver weight increase / LOEL, relative liver weight increase: NR: no response, no statistically significant dose-dependent changes
# Experimental: Subchronic (90-day) studies were performed in accordance with current U.S. EPA’s Toxic Substances Control Act Good Laboratory Practice (GLP) Standards, with the following two general exceptions to the GLP guidelines: Analysis of the dose formulations was conducted according to RTI-approved Standard Operating Procedures, and corn oil (the vehicle) was not characterized (certificate of analysis from the vendor is available in the appendices to the final reports). Male and female Sprague–Dawley rats (five dose levels plus a control, n = 10/sex/dose group, corn oil vehicle dose volume of 3 mL/kg; oral gavage) were used in these studies, and the rats were euthanized on SD 91. The dose levels for PFHI were 0, 12.5, 25, 50, 100, and 200 mg/kg-day. The dose levels for MHFPK were 0, 18.8, 37.5, 75, 150, and 300 mg/kg-day. The dose levels for PFNAC were 0, 0.1, 0.3, 1.0, 3.0, and 10 mg/kg-day for male rats and 0, 0.3, 1.0, 3.0, 10, and 30 mg/kg-day for female rats. For CTFPA, the dose levels were 0, 1.9, 3.8. 7.5, 15, and 30 mg/kg-day for male rats and 0, 6.3, 12.5, 25, 50, and 100 mg/kg-day for female rats. For each PFAS, three batches of dosing solution were prepared. The time between the batch preparation of the dosing solutions ranged between 29 and 39 days. Blood samples were collected from all the rats at termination for serum chemistry, hematology, coagulation, and the analysis of the parent PFAS chemical in the plasma. In vivo data collection and further detail on the endpoints examined postmortem are described below.
# The rats were observed twice daily for morbidity and mortality throughout the study period. At least once prior to randomization to test groups and weekly thereafter, the rats were physically examined, and bodyweights were obtained. Feed consumption was quantified weekly starting on SD 1.
# Neurotoxicity was evaluated using the functional observational battery (FOB) and measuring locomotor activity (LMA) 2–4 h post dosing on SDs 78–80 and 80–84, respectively. For both the 14- and 90-day studies, an ophthalmologic examination was conducted prior to randomization and near the end of the study, using indirect ophthalmoscopy and slit–lamp biomicroscopy (as needed) after the administration of a mydriatic solution.
# Hematology, biochemistry, and coagulation endpoints were measured at the termination of the study. A Siemens Advia 2120i hematology analyzer (Siemens Healthineers, Erlangen, Germany) was used to measure (or calculate) the parameters related to the complete blood count, leukocyte differential count, and reticulocyte count. The hematology parameters are listed and described in Table 2. The prothrombin time […] and activated partial thromboplastin time (APTT) were measured using an Instrumentation Laboratory (Bedford, MA, USA) ACL Elite Pro coagulation analyzer (laser–nephelometric centrifugal method).
# At necropsy, the rats were visually examined for external abnormalities and organ weights (absolute and relative to the BW and brain weight), which were recorded (paired organs weighed together). The tissues were preserved in 10% neutral buffered formalin (NBF), except for the ocular tissues, testes, and epididymides, which were preserved in modified Davidson’s fixative and later transferred to 10% NBF. Bone marrow smears were prepared from the femurs, and the slides were air-dried, fixed in methanol, stained, and stored at room temperature for possible future evaluation. The preserved tissues were embedded in paraffin, sectioned, stained with hematoxylin and eosin, and examined by a board-certified veterinary pathologist.
# Statistical analysis was performed using Provantis™ Version 10 or greater (Instem LSS, Limited; Stone, Staffordshire, UK). Differences among the treatment groups compared to the control were evaluated using one-way analysis of variance (ANOVA) if the underlying assumptions of a normal distribution (Shapiro–Wilk test) and the homogeneity of the variance (Levene’s test) were satisfied. […]
compound,measurement,setting,value
"CC(=O)C(F)(F)C(F)(F)C(F)(F)F [MHFPK, Methyl heptafluoropropyl ketone]",Bodyweight (BW) and bodyweight gain,"90-day, both sexes, all doses",No changes in BW or BW gain over the course of the study
same,Clinical observations,"90-day, both sexes, all doses",None
same,Coagulation endpoints,"90-day, both sexes, all doses","Males at ≥37.5 mg/kg-day, from minimal to mild dose-dependent prolongations in PT; no effects in females"
same,Feed consumption,"90-day, both sexes, all doses","No changes in males; some statistically significant changes in females, not considered as compound related"
same,Functional observational battery,"90-day, both sexes, all doses",No changes
same,Gross lesions,"90-day, both sexes, all doses",None considered as MHFPK related
same,Hematology,"90-day, both sexes, all doses",From minimal to mild dose-dependent increases in MPV in both sexes at ≥18.8 mg/kg-day
same,Histopathology,"90-day, both sexes, all doses",None considered as MHFPK related
same,Locomotor activity,"90-day, both sexes, all doses",No effects
same,Morbidity and mortality,"90-day, both sexes, all doses",None
same,Ophthalmology,"90-day, both sexes, all doses",No ocular lesions
same,Organ weight changes,"90-day, both sexes, all doses",None considered as MHFPK related
same,"LOEL, absolute kidney weight increase",female,NR
same,"LOEL, absolute liver weight increase",female,NR
same,"LOEL, relative kidney weight increase",female,NR
same,"LOEL, relative liver weight increase",female,NR
same,"NOEL, absolute kidney weight increase",female,NR
same,"NOEL, absolute liver weight increase",female,NR
same,"NOEL, relative kidney weight increase",female,NR
same,"NOEL, relative liver weight increase",female,NR
same,% BW Gain,"female, 18.8 mg/kg-day",47.40%
same,"% Diff, % BW Gain","female, 18.8 mg/kg-day",25.52%
same,"% Diff, Total BW change","female, 18.8 mg/kg-day",27.05%
same,"% Diff, Total Food Consumed","female, 18.8 mg/kg-day",11.67%
same,A/G,"female, 18.8 mg/kg-day",1.12±0.13 ratio
same,ABEOS,"female, 18.8 mg/kg-day",0.108±0.037 K/µL
same,ABNEUT,"female, 18.8 mg/kg-day",1.004±0.296 K/µL
same,ABRETi,"female, 18.8 mg/kg-day",195.85±38.05 10^9/L
same,ALB,"female, 18.8 mg/kg-day",4.26 ± 0.27 g/dL
same,ALPi,"female, 18.8 mg/kg-day",69.1±55.5 U/L
same,APTT,"female, 18.8 mg/kg-day",16.80 s
same,BUN,"female, 18.8 mg/kg-day",15.5 ± 2.2 mg/dL
same,CHOL,"female, 18.8 mg/kg-day",100.6 ± 17.0 mg/dL
same,GLOB,"female, 18.8 mg/kg-day",3.82 ± 0.36 g/dL
same,GLUC,"female, 18.8 mg/kg-day",158.0 ± 18.9 mg/dL
same,HCT,"female, 18.8 mg/kg-day",46.27±2.37%
same,HGB,"female, 18.8 mg/kg-day",14.58 ± 0.67 g/dL
same,Kidney Weight,"female, 18.8 mg/kg-day",1.94 g
same,Kidney/Body Weight,"female, 18.8 mg/kg-day",0.56%
same,Kidney/Brain Weight,"female, 18.8 mg/kg-day",96.5%
same,Liver Weight,"female, 18.8 mg/kg-day",8.74 g
same,Liver/Body Weight,"female, 18.8 mg/kg-day",2.51%
same,Liver/Brain Weight,"female, 18.8 mg/kg-day",435%
same,MPV,"female, 18.8 mg/kg-day",8.22 ± 0.82 fL
same,PT,"female, 18.8 mg/kg-day",15.23 s
same,RBC,"female, 18.8 mg/kg-day",7.887±0.439 M/µL
same,Total BW change,"female, 18.8 mg/kg-day",115.68 g
same,Total Food Consumed,"female, 18.8 mg/kg-day",1629 g
same,% BW Gain,"female, 37.5 mg/kg-day",44.49%
same,"% Diff, % BW Gain","female, 37.5 mg/kg-day",17.83%
same,"% Diff, Total BW change","female, 37.5 mg/kg-day",18.53%
same,"% Diff, Total Food Consumed","female, 37.5 mg/kg-day",1.46%
same,A/G,"female, 37.5 mg/kg-day",1.05±0.08 ratio
same,ABEOS,"female, 37.5 mg/kg-day",0.102±0.040 K/µL
same,ABNEUT,"female, 37.5 mg/kg-day",1.068±0.314 K/µL
same,ABRETi,"female, 37.5 mg/kg-day",190.80±35.78 10^9/L
same,ALB,"female, 37.5 mg/kg-day",4.17 ± 0.35 g/dL
same,ALPi,"female, 37.5 mg/kg-day",56.9±24.3 U/L
same,APTT,"female, 37.5 mg/kg-day",18.10 s
same,BUN,"female, 37.5 mg/kg-day",14.7 ± 2.4 mg/dL
same,CHOL,"female, 37.5 mg/kg-day",106.5 ± 21.4 mg/dL
same,GLOB,"female, 37.5 mg/kg-day",3.99 ± 0.28 g/dL
same,GLUC,"female, 37.5 mg/kg-day",161.9 ± 28.0 mg/dL
same,HCT,"female, 37.5 mg/kg-day",46.13±1.42%
same,HGB,"female, 37.5 mg/kg-day",14.42 ± 0.61 g/dL
same,Kidney Weight,"female, 37.5 mg/kg-day",1.84 g
same,Kidney/Body Weight,"female, 37.5 mg/kg-day",0.55%
same,Kidney/Brain Weight,"female, 37.5 mg/kg-day",91.4%
same,Liver Weight,"female, 37.5 mg/kg-day",8.76 g
same,Liver/Body Weight,"female, 37.5 mg/kg-day",2.58%
same,Liver/Brain Weight,"female, 37.5 mg/kg-day",433%
same,MPV,"female, 37.5 mg/kg-day",8.56 ± 0.67 fL
same,PT,"female, 37.5 mg/kg-day",14.98 s
same,RBC,"female, 37.5 mg/kg-day",7.864±0.307 M/µL
same,Total BW change,"female, 37.5 mg/kg-day",107.92 g
same,Total Food Consumed,"female, 37.5 mg/kg-day",1480 g
same,% BW Gain,"female, 75 mg/kg-day",39.38%
